Converted amounts (≈) assume the structure as drawn.
Key:
[1] = biological target: Sodium channel protein type 10 subunit alpha (Homo sapiens, UniProt Q9Y5Y9); assay: Inhibition of human Nav1.8 expressed in HEK cells by patch-clamp electrophysiology method; assay type: cell-based
[2] = Dissociation constant, pKa of the compound; assay type: physicochemical
[3] = Stability in human liver microsomes assessed per mg protein; assay type: ADME, Microsome
[4] = biological target: Voltage-gated inwardly rectifying potassium channel KCNH2 (Homo sapiens, UniProt Q12809); assay: Inhibition of human ERG
[5] = biological target: Sodium channel protein type 5 subunit alpha (Homo sapiens, UniProt Q14524); assay: Inhibition of human Nav1.5
[6] = Stability in human hepatocytes assessed per million cells; assay type: ADME, cell-based, Hepatocyte
[7] = Apparent permeability from apical to basolateral in RRCK cells; assay type: ADME, cell-based, Canis lupus familiaris, MDCKII-LE; conditions: dog, MDCK
[8] = biological target: Sodium channel protein type 3 subunit alpha (Homo sapiens, UniProt Q9NY46); assay: Inhibition of human Nav1.3
[9] = Volume of distribution in rat at 1 mg/kg, iv or 3 mg/kg, po; assay type: ADME, organism-based; conditions: in vivo
[10] = biological target: Sodium channel protein type 9 subunit alpha (Homo sapiens, UniProt Q15858); assay: Inhibition of human Nav1.7
[11] = biological target: Voltage-gated L-type calcium channel (Homo sapiens, UniProt Q13936+Q13698+Q01668+O60840); assay: Inhibition of L-type calcium channel (unknown origin); assay type: protein assay
[12] = Oral bioavailability in rat at 3 mg/kg; assay type: ADME, organism-based; conditions: in vivo
[13] = biological target: Sodium channel protein type 1 subunit alpha (Homo sapiens, UniProt P35498); assay: Inhibition of human Nav1.1
[14] = biological target: Small conductance calcium-activated potassium channel protein 2 (Homo sapiens, UniProt Q9H2S1); assay: Inhibition of SK2 (unknown origin)
[15] = Unbound clearance in rat at 1 mg/kg, iv or 3 mg/kg, po; assay type: ADME, organism-based; conditions: in vivo
[16] = Half life in rat at 1 mg/kg, iv or 3 mg/kg, po; assay type: ADME, organism-based; conditions: in vivo
[17] = biological target: T1, Gamma-aminobutyric acid receptor subunit alpha-1/gamma-2 (Homo sapiens, UniProt P14867+P18507); assay: Inhibition of GABA receptor alpha1gamma2 (unknown origin); assay type: protein-complex assay
T1 sequence (P14867 whole entry): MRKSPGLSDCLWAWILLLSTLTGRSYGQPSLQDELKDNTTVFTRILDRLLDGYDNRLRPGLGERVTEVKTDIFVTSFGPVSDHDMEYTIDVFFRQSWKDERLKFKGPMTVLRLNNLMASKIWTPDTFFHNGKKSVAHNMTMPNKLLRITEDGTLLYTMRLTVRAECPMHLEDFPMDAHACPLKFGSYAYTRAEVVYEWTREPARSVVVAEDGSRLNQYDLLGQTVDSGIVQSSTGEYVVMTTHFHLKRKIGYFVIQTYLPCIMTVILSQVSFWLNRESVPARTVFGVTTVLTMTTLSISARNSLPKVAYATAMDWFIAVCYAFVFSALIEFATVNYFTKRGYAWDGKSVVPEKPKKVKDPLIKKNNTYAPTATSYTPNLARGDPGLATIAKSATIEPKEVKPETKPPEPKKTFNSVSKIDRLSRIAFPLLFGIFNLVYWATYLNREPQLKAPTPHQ
T1 sequence (P18507 whole entry): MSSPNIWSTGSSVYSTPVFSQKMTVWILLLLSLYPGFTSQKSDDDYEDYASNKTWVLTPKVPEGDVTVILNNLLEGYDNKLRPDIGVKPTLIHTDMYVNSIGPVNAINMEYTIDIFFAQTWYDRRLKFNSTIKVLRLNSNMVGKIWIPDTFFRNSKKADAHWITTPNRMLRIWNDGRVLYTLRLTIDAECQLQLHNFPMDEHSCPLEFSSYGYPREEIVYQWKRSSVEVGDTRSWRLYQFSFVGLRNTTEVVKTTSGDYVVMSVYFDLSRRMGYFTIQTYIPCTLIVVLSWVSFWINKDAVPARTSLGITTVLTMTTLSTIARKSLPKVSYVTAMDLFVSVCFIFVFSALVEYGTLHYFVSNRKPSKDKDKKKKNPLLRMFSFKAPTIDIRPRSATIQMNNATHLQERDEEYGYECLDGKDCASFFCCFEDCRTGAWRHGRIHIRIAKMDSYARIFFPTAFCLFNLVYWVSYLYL

[18] = biological target: Voltage-gated T-type calcium channel (Homo sapiens, UniProt O95180+O43497+Q9P0X4); assay: Inhibition of T-type calcium channel (unknown origin); assay type: protein assay
[19] = biological target: T2, Potassium voltage-gated channel subfamily KQT member 1 (Homo sapiens, UniProt P51787); assay: Inhibition of KvLQT1 (unknown origin)
T2 sequence (P51787 whole entry): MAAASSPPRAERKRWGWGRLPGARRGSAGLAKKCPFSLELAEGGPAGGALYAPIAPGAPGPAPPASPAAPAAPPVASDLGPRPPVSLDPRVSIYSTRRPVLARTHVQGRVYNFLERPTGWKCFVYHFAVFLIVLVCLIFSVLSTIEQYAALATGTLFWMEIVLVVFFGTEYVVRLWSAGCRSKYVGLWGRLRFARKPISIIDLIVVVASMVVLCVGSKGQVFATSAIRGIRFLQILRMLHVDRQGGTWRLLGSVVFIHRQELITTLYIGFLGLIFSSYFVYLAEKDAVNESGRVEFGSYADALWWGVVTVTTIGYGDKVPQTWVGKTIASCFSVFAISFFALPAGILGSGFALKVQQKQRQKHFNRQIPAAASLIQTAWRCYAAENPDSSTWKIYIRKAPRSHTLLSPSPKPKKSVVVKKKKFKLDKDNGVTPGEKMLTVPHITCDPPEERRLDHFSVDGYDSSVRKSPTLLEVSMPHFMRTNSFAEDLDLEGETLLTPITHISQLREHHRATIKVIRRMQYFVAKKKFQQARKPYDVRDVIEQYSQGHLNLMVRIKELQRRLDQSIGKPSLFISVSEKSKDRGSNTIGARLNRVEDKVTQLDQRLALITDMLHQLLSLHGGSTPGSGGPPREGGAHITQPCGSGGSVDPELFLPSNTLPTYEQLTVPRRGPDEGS

[20] = Lipophilicity, log D of the compound; assay type: physicochemical; conditions: octanol/water
[21] = Solubility of the compound at pH 7.4; assay type: physicochemical; conditions: buffer
[22] = AUC (0 to infinity) in rat at 1 mg/kg, iv or 3 mg/kg, po; assay type: ADME, organism-based; conditions: in vivo
[23] = biological target: Sodium channel protein type 8 subunit alpha (Homo sapiens, UniProt Q9UQD0); assay: Inhibition of human Nav1.6
[24] = biological target: Potassium voltage-gated channel subfamily A member 2 (Homo sapiens, UniProt P16389); assay: Inhibition of Kv1.2 (unknown origin)
[25] = biological target: Potassium voltage-gated channel subfamily A member 5 (Homo sapiens, UniProt P22460); assay: Inhibition of Kv1.5 (unknown origin)
[26] = biological target: Sodium channel protein type 2 subunit alpha (Homo sapiens, UniProt Q99250); assay: Inhibition of human Nav1.2
[27] = biological target: Potassium voltage-gated channel subfamily A member 1 (Homo sapiens, UniProt Q09470); assay: Inhibition of Kv1.1 (unknown origin)
[28] = Plasma clearance in rat at 1 mg/kg, iv or 3 mg/kg, po; assay type: ADME, organism-based
[29] = biological target: Sodium channel protein type 4 subunit alpha (Homo sapiens, UniProt P35499); assay: Inhibition of human Nav1.4
[30] = biological target: Nav1.5 (SCN5A) (Homo sapiens, UniProt Q14524); assay: Inhibition of human Nav1.5 at 10 uM

Sequence of Sodium channel protein type 10 subunit alpha (Q9Y5Y9 whole entry): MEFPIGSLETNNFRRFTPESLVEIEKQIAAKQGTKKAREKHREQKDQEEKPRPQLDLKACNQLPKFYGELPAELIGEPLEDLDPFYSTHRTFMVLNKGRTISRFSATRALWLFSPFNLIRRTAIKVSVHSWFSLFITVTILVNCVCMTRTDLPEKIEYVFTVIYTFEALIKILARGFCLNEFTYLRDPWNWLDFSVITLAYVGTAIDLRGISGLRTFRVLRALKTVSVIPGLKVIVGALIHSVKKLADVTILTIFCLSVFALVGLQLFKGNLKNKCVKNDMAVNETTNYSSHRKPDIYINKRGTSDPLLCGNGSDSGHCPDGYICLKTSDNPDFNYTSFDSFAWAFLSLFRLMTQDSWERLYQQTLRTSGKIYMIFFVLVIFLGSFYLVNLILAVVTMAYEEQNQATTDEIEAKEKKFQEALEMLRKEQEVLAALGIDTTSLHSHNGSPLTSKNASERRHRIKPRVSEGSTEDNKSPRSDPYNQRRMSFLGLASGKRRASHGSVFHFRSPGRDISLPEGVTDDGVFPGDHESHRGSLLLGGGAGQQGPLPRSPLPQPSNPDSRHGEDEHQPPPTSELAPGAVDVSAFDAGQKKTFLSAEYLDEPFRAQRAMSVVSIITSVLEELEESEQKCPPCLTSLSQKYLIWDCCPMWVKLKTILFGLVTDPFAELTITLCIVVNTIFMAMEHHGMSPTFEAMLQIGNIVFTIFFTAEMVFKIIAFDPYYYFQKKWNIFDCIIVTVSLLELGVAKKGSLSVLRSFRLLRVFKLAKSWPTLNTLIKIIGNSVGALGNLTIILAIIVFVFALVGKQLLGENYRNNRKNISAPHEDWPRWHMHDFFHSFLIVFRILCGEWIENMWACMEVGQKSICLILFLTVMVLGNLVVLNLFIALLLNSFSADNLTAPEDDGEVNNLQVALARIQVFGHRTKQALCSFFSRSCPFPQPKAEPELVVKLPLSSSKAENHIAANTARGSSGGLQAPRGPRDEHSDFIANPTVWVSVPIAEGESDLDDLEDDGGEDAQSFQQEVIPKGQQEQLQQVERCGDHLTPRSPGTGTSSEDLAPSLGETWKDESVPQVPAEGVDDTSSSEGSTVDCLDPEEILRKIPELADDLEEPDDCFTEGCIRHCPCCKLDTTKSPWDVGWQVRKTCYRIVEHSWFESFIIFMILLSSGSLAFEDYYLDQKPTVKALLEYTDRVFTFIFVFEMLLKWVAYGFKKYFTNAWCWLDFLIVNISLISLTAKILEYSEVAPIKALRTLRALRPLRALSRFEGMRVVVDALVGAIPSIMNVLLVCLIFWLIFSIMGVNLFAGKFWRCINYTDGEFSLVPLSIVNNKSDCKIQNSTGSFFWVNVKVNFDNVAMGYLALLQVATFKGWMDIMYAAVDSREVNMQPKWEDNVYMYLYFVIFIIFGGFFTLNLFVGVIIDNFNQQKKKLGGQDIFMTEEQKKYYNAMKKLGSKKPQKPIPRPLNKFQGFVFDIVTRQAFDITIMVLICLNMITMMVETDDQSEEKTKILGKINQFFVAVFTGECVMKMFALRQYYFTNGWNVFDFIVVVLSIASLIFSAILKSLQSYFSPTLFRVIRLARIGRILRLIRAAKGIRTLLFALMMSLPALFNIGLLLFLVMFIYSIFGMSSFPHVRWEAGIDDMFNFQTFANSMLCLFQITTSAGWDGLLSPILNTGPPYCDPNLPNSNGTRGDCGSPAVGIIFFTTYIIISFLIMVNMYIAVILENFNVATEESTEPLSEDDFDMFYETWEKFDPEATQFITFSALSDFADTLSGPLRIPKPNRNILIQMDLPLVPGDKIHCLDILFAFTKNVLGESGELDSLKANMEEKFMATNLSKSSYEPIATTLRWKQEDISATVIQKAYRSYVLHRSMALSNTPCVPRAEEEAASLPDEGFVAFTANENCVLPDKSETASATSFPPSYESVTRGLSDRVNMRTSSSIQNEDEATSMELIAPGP
Sequence of Sodium channel protein type 5 subunit alpha (Q14524 whole entry): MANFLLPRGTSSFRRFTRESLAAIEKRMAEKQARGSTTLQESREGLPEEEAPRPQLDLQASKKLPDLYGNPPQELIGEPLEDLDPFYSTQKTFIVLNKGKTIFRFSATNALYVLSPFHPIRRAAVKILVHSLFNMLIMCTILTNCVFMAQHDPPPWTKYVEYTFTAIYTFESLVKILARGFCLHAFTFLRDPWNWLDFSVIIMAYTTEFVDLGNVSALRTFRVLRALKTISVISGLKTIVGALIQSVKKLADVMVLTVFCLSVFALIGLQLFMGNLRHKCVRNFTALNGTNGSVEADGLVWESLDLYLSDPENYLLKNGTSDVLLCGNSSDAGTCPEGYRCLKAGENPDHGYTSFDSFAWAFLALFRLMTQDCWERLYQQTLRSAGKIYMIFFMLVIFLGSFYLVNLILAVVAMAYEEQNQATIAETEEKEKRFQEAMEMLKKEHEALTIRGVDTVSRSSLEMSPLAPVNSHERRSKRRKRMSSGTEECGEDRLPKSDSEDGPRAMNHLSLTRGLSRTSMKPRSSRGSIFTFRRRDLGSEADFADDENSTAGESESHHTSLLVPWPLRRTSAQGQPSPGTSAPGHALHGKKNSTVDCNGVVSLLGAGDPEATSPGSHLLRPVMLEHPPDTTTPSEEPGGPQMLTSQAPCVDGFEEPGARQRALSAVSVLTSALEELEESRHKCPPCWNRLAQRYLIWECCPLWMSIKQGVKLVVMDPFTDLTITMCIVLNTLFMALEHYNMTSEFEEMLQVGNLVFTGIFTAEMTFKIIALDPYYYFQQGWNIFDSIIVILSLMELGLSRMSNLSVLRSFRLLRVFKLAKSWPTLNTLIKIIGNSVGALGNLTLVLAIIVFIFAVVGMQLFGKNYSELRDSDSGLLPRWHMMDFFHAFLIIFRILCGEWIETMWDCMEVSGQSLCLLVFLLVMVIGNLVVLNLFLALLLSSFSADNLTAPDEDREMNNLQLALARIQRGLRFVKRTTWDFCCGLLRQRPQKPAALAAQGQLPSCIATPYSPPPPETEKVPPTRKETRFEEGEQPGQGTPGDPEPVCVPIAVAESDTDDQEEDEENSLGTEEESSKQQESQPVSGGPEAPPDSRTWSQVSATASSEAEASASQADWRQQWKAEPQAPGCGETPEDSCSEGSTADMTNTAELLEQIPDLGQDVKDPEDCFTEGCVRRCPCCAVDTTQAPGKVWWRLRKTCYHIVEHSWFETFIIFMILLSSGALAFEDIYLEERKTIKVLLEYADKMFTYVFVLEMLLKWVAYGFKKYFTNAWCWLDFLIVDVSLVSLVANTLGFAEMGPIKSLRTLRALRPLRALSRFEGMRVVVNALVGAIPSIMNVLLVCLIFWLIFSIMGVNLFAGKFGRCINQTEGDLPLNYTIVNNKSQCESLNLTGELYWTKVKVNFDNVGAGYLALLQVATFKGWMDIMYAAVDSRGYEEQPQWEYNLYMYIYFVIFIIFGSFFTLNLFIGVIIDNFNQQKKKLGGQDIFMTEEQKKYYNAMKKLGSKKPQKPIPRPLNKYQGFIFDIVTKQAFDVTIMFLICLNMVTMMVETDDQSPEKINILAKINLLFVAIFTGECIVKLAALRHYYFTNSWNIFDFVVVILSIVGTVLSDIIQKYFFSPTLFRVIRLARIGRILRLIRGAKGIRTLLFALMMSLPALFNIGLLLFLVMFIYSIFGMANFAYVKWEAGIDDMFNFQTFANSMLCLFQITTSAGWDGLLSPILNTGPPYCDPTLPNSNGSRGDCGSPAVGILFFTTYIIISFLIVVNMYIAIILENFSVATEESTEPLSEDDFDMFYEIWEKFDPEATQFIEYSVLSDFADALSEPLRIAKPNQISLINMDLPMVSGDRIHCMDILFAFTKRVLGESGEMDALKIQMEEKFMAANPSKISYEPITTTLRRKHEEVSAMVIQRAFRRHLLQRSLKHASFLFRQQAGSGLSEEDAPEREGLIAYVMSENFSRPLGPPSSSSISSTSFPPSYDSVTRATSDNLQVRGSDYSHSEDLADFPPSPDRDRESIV
Sequence of Voltage-gated inwardly rectifying potassium channel KCNH2 (Q12809 whole entry): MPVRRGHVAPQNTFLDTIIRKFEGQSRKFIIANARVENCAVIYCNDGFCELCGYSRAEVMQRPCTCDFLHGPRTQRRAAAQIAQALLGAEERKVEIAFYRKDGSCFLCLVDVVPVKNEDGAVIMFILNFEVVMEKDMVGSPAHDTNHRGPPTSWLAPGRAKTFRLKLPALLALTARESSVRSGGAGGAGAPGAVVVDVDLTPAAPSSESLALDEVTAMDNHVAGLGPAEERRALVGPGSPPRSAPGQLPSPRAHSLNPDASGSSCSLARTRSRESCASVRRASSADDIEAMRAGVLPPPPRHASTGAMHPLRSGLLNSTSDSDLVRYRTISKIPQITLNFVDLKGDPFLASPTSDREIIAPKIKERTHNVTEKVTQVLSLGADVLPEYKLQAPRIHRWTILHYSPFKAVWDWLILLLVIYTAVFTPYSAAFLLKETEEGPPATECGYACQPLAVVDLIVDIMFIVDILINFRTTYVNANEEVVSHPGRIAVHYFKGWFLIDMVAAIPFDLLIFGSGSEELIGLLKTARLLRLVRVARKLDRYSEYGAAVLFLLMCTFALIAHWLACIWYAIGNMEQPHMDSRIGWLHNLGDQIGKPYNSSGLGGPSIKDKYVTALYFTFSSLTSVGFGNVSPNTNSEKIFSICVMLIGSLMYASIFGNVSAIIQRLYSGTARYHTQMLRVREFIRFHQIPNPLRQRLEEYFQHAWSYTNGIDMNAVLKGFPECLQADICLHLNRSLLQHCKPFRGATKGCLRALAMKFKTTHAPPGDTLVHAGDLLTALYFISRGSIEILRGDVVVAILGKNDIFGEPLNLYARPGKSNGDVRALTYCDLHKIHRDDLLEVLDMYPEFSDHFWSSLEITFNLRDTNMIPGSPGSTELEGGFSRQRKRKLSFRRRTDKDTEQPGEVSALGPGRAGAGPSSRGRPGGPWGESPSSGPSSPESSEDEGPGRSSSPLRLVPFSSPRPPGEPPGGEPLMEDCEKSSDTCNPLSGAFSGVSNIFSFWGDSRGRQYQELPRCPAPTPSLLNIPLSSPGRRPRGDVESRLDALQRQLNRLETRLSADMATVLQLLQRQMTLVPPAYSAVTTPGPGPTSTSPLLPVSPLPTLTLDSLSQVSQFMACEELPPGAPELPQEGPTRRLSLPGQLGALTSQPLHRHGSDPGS

CO[C@H](C)[C@H](N)c1nc2cc(OC(F)(F)F)ccc2[nH]1
IC50 [1]: 2570 nM

CO[C@H](C)[C@H](N)c1nc2cc(C(C)(C)C)ccc2[nH]1
IC50 [1]: 24 nM

CC(C)(C)c1ccc2nc([C@@H](N)CO)cnc2c1
IC50 [1]: > 1000 nM

CC(C)(C)c1ccc2ncc([C@H](N)CO)nc2c1
IC50 [1]: > 1000 nM

CC(C)(C)c1ccc2[nH]c([C@H]3CCCN3)nc2c1
IC50 [1]: 43 nM

CC1(c2ccc3[nH]c([C@@H](N)CO)nc3c2)CC1
IC50 [1]: 593 nM

C[C@H](O)[C@@H](N)c1nc2cc(-c3ccc(C#N)cc3)ccc2[nH]1
IC50 [1]: 579 nM

CCC(C)c1ccc2[nH]c([C@@H](N)CO)nc2c1 (stereo partly drawn)
IC50 [1]: 708 nM

CC(C)(C)c1ccc2[nH]c([C@H]3C[C@@H](O)CN3)nc2c1
IC50 [1]: 31 nM

CC(C)(C)c1ccc2ncc([C@@H](N)CO)nc2c1
IC50 [1]: > 1000 nM

C[C@@H](O)[C@H](N)c1nc2cc(C(F)(F)F)ccc2[nH]1
IC50 [1]: 534 nM

C[C@@H](O)[C@H](N)c1nc2cc(S(F)(F)(F)(F)F)ccc2[nH]1
IC50 [1]: 95 nM

C[C@@H](C(N)=O)[C@H](N)c1cn2cc(C(C)(C)C)ccc2n1
pKa [2]: 7 | Stability [3]: < 11 µL/min | IC50 [4]: > 72000 nM | IC50 [5]: > 10000 nM | Stability [6]: 2.5 µL/min | Papp A→B [7]: 2.2 ×10⁻⁶ cm/s

CO[C@H](C)[C@H](N)c1nc2cc(-c3ccc(C#N)cc3F)ccc2[nH]1
IC50 [1]: 18 nM

C[C@@H](O)[C@H](N)c1nc2cc(C(C)(C)C#N)ccc2[nH]1
IC50 [1]: 728 nM

CCC[C@H](N)c1nc2cc(C(C)(C)C)ccc2[nH]1
IC50 [1]: 2 nM

CC(C)c1ccc2[nH]c([C@@H](N)[C@@H](C)O)nc2c1
IC50 [1]: 43 nM

C[C@@H](C(N)=O)[C@H](N)c1nc2ccc(C(C)(C)C)cc2[nH]1 [PF-06305591]
IC50 [8]: > 30000 nM | Vd [9]: 2.3 L/kg | IC50 [10]: > 30000 nM | pKa [2]: 5.9 | IC50 [11]: > 30000 nM | Stability [3]: < 11 µL/min | bioavailability [12]: 61% | IC50 [1]: 15 nM | IC50 [13]: > 30000 nM | IC50 [4]: > 30000 nM | IC50 [5]: > 30000 nM | IC50 [14]: > 30000 nM | CL free [15]: 214 mL/min/kg | half-life [16]: 1.5 h | IC50 [17]: > 30000 nM | IC50 [18]: > 30000 nM | Stability [6]: < 2 µL/min | IC50 [19]: > 30000 nM | logD [20]: 2.1 | solubility [21]: 2000 µg/mL (≈ 7.29 mM) | Papp A→B [7]: 3.5 ×10⁻⁶ cm/s | AUC(0-inf) [22]: 962 ng·h/mL | IC50 [23]: > 30000 nM | IC50 [24]: > 30000 nM | IC50 [25]: > 30000 nM | IC50 [26]: > 30000 nM | IC50 [27]: > 30000 nM | clearance [28]: 40 mL/min/kg | IC50 [29]: > 30000 nM

CCCC(O)c1nc2cc(C(C)(C)C)ccc2[nH]1 (stereo not drawn)
IC50 [1]: > 1000 nM

CO[C@H](C)[C@H](N)c1nc2cc(-c3ccc(C#N)nc3)ccc2[nH]1
IC50 [1]: 998 nM

CN[C@@H](CC(N)=O)c1nc2cc(C(C)(C)C)ccc2[nH]1
IC50 [1]: 742 nM

CC(C)(C)c1ccc2[nH]c(C(C)(C)N)nc2c1
inhibition at 10 µM [30]: 12% | IC50 [1]: 607 nM

CC(C)(C)c1ccc2[nH]c([C@@](C)(N)CO)nc2c1
IC50 [1]: 65 nM

CC(C)(C)c1ccc2nc([C@H](N)CO)cnc2c1
IC50 [1]: > 1000 nM

Source: ChEMBL document CHEMBL4330091, “The discovery and optimization of benzimidazoles as selective NaV1.8 blockers for the treatment of pain” (Bioorg Med Chem, 2019)
